The values below come from paper PMC6045348 (ACS Omega, 2018).

SMILES strings stand for the structures.

As usually defined, the IC50 is the point on the concentration scale where inhibition reaches its midpoint. Read a low IC50 as inhibition by little substance.

In the assay the target is Ser–Thr PP-1 catalytic subunit (PP1c) (Oryctolagus cuniculus, UniProt P62139). The assay can be described thus: DiFMUP fluorescence phosphatase assay, residual activity […] at […]. It counts as biochemical.
Sequence of Ser–Thr PP-1 catalytic subunit (PP1c) (P62139 2-330): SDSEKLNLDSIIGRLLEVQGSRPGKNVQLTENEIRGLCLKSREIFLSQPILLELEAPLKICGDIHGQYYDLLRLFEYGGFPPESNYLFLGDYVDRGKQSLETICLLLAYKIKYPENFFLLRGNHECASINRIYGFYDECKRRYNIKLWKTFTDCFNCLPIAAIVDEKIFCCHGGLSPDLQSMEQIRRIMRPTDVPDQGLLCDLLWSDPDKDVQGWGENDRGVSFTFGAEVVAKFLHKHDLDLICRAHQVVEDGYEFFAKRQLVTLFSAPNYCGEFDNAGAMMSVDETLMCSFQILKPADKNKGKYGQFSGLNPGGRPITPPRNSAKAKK

With `CN1C[C@@H](c2c[nH]c3cc(Br)ccc23)NC[C@@H]1c1c[nH]c2cc(Br)ccc12` [compound 3, dragmacidin A], the IC50 is roughly 10 µM.
